79 molecules from the METLIN SMRT retention time set (Domingo-Almenara et al. 2019) can be followed below.

This data set in a line: gradient 5% acetonitrile 3 min, to 50% in 2 min, to 85% in 15 min, held 3 min, 100 µL/min. Conditions: column: Zorbax Extend-C18 2.1 x 50 mm; eluents: water / acetonitrile, 0.1% formic acid. In a few lines: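 A Zorbax Extend-C18 column (2.1 × 50 mm, 1.8 μm) run at 100 μL/min with water and acetonitrile, both containing 0.1% formic acid, separated mixtures of ~100 pure standards. The HPLC was coupled to a quadrupole time-of-flight mass spectrometer operated in positive and negative ionization mode, with dead and dwell volumes of 40 μL and 900 μL. Each retention time was taken from a computationally picked adduct peak that was then manually inspected.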
As for `COc1ccc(-c2nc3cc(C)ccn3c2NC(=O)c2cccc(C(F)(F)F)c2)cc1OC`, the RP-LC retention time came out at 729 s.

In turn, `Cc1ccc(C(=O)Nc2nc(-c3ccc4c(c3)NC(=O)C(C)O4)c(C)s2)cc1` (centres undefined) displayed an RP-LC retention time of 1010 s.

Turning to `O=C(CCC(=O)OCc1ccc(Br)cc1)Nc1nc(-c2ccccc2)cs1`, the RP-LC retention time was found to be 1130 s.

`CCCNC(=O)CCc1nc2ccccc2n(CC(=O)NCc2ccccc2)c1=O` returned an RP-LC retention time of 1270 s.

With `Cc1nnc(N2CCCC(C(=O)N(C)Cc3ccccc3)C2)c2nn(-c3ccc(Cl)cc3)c(C)c12` (centres undefined), the RP-LC retention time was 795 s.

Molecule `COc1ccc(-c2cc3c(=O)n(CC(=O)N4CCN(c5ccccn5)CC4)nc(C)n3n2)cc1` had an RP-LC retention time of 663 s.

For `COc1cc(C(=O)Nc2nc(-c3ccc4c(c3)NC(=O)CO4)c(C)s2)cc(OC)c1OC`, the RP-LC retention time was 860 s.

Molecule `COc1ccccc1OCC(=O)Nc1cc(-c2ccccn2)no1` returned an RP-LC retention time of 802 s.

As for `N#Cc1cccc(-c2cn3c(n2)N(C(=O)c2cnccn2)CCC3)c1`, the RP-LC retention time turned out to be 687 s.

For the molecule `CCOc1ccc(NC(=O)N2CCN(Cc3nc4ccc(C)cc4o3)CC2)cc1`, the RP-LC retention time came out at 733 s.

With `CCC(=O)N1CCc2cc(-c3ccc(C(=O)N4CCN(c5ncccn5)CC4)cc3)ccc21`, the RP-LC retention time came out at 855 s.

Molecule `CCC(C)NC(=O)C1CCN(c2cncnc2N2CCCC2)CC1` (centres undefined) showed an RP-LC retention time of 608 s.

As for `CC(C)Cc1csc(-c2csc(S(=O)(=O)NCc3cc(F)cc(F)c3)c2)n1`, the RP-LC retention time came out at 1200 s.

In turn, `COc1ccc(-n2c(=O)n(C)c(=O)c3cc(C(=O)NCc4ccc(C)cc4)cnc32)cc1` returned an RP-LC retention time of 888 s.

`COCC1CN(C(=O)c2ccoc2C)CCC1(F)F` (centres undefined) came in with an RP-LC retention time of 729 s.

`Clc1ccc(Cn2c(CN3CCCC3)nc3ccccc32)cc1` registered an RP-LC retention time of 750 s.

In the case of `COc1cccc(CN2CCCCCCNC(=O)[C@@H]3CCC[C@@H]32)n1`, the RP-LC retention time turned out to be 660 s.

The molecule `CNC(=O)c1cc(=O)[nH]c2ccccc12` had an RP-LC retention time of 580 s.

The molecule `COCC(C)Nc1ncnc2c1cnn2-c1cccc(Cl)c1` (centres undefined) yielded an RP-LC retention time of 925 s.

On to `CCc1ccc2c(c1)cc(S(=O)(=O)c1ccccc1)c(=O)n2CC(=O)NC1CCCCC1`, for which the RP-LC retention time worked out at 1030 s.

On to `O=C(NCc1ccc(OC(F)(F)F)cc1)C1c2c(F)cccc2C(=O)N1CCc1ccccn1` (centres undefined), for which the RP-LC retention time stood at 787 s.

Consider `CSc1cccc(NC(=O)Cn2ccn3nc(-c4ccc(F)cc4)c(CO)c3c2=O)c1`, for which the RP-LC retention time is 877 s.

The molecule `COc1ccc(Cn2nnc(C(=O)NCC3CCCO3)c2-n2cccc2)cc1` (centres undefined) came in with an RP-LC retention time of 832 s.

`CCCS(=O)(=O)N1CC(=O)N(c2cccc(Cl)c2C)C(C)(C(=O)NC2CCCCC2)C1` (centres undefined) displayed an RP-LC retention time of 1010 s.

`COc1ccc(C(=O)NC2(c3nc(C)no3)CCCCC2)c(C)c1` gave an RP-LC retention time of 855 s.

`O=C(Cn1nc(-c2ccco2)ccc1=O)NCCOc1cc(N2CCCCC2)ncn1`: the RP-LC retention time was 588 s.

For the molecule `O=c1c2sccc2n(Cc2nc(-c3ccc(Cl)cc3)no2)c(=O)n1-c1cccc(F)c1`, the RP-LC retention time amounted to 1070 s.

On to `CCOC(=O)NCc1nc(COc2ccc(OC)cc2)no1`, for which the RP-LC retention time came to 727 s.

For the molecule `Cc1ccc(-c2noc(CNC(=O)C3CCC(=O)N3S(=O)(=O)c3ccc(C)cc3)n2)cc1` (centres undefined), the RP-LC retention time came out at 929 s.

In turn, `CC1=C(c2ccc(F)cc2)S(=O)(=O)N=C1N1CCC(NC(=O)NC(C)C)CC1` registered an RP-LC retention time of 861 s.

The molecule `COc1ccc(CCN2C(=O)CC(Nc3ccc(N4CCOCC4)cc3)C2=O)cc1OC` (centres undefined) gave an RP-LC retention time of 583 s.

With `O=C(COc1ccc(F)c(F)c1)NCC1CCOCC1`, the RP-LC retention time is 719 s.

As for `Cc1cc(=O)n(CC(=O)NCc2ccccc2)c(N(C)Cc2ccccc2)n1`, the RP-LC retention time was determined as 684 s.

Molecule `CCNC(=O)C1CCCN(c2nc3ncn(CC(=O)Nc4cc(F)cc(F)c4)c(=O)c3s2)C1` (centres undefined) registered an RP-LC retention time of 688 s.

`COc1ccc(C)cc1NC(=O)Cn1cnc2c(sc3nc(-c4ccccc4)ccc32)c1=O` returned an RP-LC retention time of 1090 s.

As for `Cc1cc(-c2nnc(C3CCC3)o2)c(C)n1CC(=O)NCc1ccccc1C(F)(F)F`, the RP-LC retention time was 960 s.

The molecule `CC(=O)c1cccc(NC(=O)Cn2nc3c(cc2=O)CN(C(C)=O)CC3)c1` came in with an RP-LC retention time of 601 s.

The molecule `COC(=O)c1cnc2nc(C)ccc2c1Nc1ccc(Cl)cc1F` came in with an RP-LC retention time of 711 s.

Take `COc1ccc(C2(C(=O)N3CCCC(CN4CCOCC4)CC3)CC2)cc1` (centres undefined): the RP-LC retention time is 596 s.

On to `O=C(CCC1CCCN(C(=O)Nc2ccc(Cl)cc2)C1)NCc1cccc(Cl)c1` (centres undefined), for which the RP-LC retention time was 960 s.

`O=C(NCCc1csc(-c2ccccc2)n1)C1CCN(C(=O)c2ccc(F)c(Cl)c2)CC1` showed an RP-LC retention time of 1020 s.

In turn, `O=C(CN1C(=O)CSc2ccc(C(=O)N3CCCC3)cc21)N1CCN(c2ncccn2)CC1` yielded an RP-LC retention time of 661 s.

For `COc1ccc(-c2nc3cnccn3c2Nc2ccc3c(c2)OCCO3)cc1OC`, the RP-LC retention time was determined as 717 s.

Turning to `COc1ccc(-n2cc(C(=O)O)nn2)cc1OC`, the RP-LC retention time is 638 s.

`COc1cc(-c2ccc(SCC(=O)c3ccc(C)cc3)nn2)cc(OC)c1OC`: the RP-LC retention time is 949 s.

In the case of `CC(=O)c1cccc(NS(=O)(=O)c2ccc(-c3c(C)noc3C)cc2)c1`, the RP-LC retention time was 805 s.

`CCCn1c(=O)c(C)nc2cc(-c3noc(/C=C/c4ccc(OC)cc4)n3)ccc21` showed an RP-LC retention time of 1210 s.

The molecule `N#CCc1ccc(NC(=O)C2CCCN(S(=O)(=O)Cc3ccccc3Cl)C2)cc1` (centres undefined) yielded an RP-LC retention time of 905 s.

The molecule `Cn1nnc2cc(-c3noc(C4CC(=O)N(c5ccccc5)C4)n3)ccc21` (centres undefined) showed an RP-LC retention time of 788 s.

In the case of `Cc1ncnc2c1CCC(=O)N2Cc1cccnc1`, the RP-LC retention time turned out to be 539 s.

As for `O=c1n(Cc2cccc(C(F)(F)F)c2)nc2ccc(S(=O)(=O)N3CCCC3)cn12`, the RP-LC retention time was 938 s.

Turning to `CSc1ccccc1NC(=O)C(=O)NCC1(CO)CC1`, the RP-LC retention time amounted to 727 s.

In turn, `O=C(CC1CCN(C(=O)c2ccc3oc(-c4ccccc4)nc3c2)CC1)NCC1CCCO1` (centres undefined) showed an RP-LC retention time of 718 s.

Regarding `O=C(NC1CC1)C1c2ccccc2CC(=O)N1Cc1ccccc1` (centres undefined), the RP-LC retention time is 750 s.

In turn, `O=c1ccn(-c2ccc(Cl)cc2)nc1-c1nc(-c2cccc(F)c2)no1` had an RP-LC retention time of 954 s.

`CCOC(=O)c1ncn(Cc2ccc3c(c2)OCO3)c1N` showed an RP-LC retention time of 609 s.

Molecule `O=C(Cc1ccc(F)cc1)N1CCN(c2cc(-c3cccs3)[nH]n2)CC1` had an RP-LC retention time of 782 s.

`COCCNC(=O)C1c2cc(OC)c(OC)cc2C(=O)N(C)C1c1ccc(OC)c(OC)c1` (centres undefined) returned an RP-LC retention time of 642 s.

With `O=S(=O)(Nc1cccn2cnnc12)c1ccc2c(c1)CCC2`, the RP-LC retention time stood at 736 s.

As for `O=C(CCc1conc1-c1ccc(F)cc1)NCc1ccc(F)cc1`, the RP-LC retention time is 886 s.

The molecule `CCOC(=O)c1noc2nc(C)nc(NCCCN3CCN(c4cc(Cl)ccc4C)CC3)c12` returned an RP-LC retention time of 948 s.

For `CCOc1ccc(OCC)c(NC(=O)C2CCN(c3nccnc3Sc3ccc(C)cc3)CC2)c1`, the RP-LC retention time came to 1380 s.

`Cc1nc(NCCNC(=O)c2cccs2)cc(N2CCCC2)n1` yielded an RP-LC retention time of 560 s.

`Cc1nnc(-c2nnc(NC3CCCCC3)c3ccccc23)o1` gave an RP-LC retention time of 688 s.

In turn, `Cc1cc(S(=O)(=O)Nc2ccc3c(c2)CCC(=O)N3CC(C)C)ccc1F` showed an RP-LC retention time of 909 s.

`FC(F)(F)c1cccc(CSc2ccc(-n3ccnc3)nn2)c1` displayed an RP-LC retention time of 671 s.

The molecule `CCC(C)NC(=O)N1CCN(c2cc(-c3cccc(F)c3)ncn2)CC1` (centres undefined) showed an RP-LC retention time of 650 s.

The molecule `Cn1c(=O)c(N2CCN(C(=O)C3(c4ccccc4)CC3)CC2)nc2ccccc21` came in with an RP-LC retention time of 951 s.

The molecule `CC1(C(=O)NC2CCCC2)Cn2cnc(C(=O)NCc3cccc(F)c3)c2C(=O)N1C1CC1` (centres undefined) yielded an RP-LC retention time of 753 s.

Take `O=C(NC1CCCCCC1)C1CCN(Cc2cc3ccccc3n2Cc2cccc(F)c2)CC1`: the RP-LC retention time came to 848 s.

For `Cc1ccc(S(=O)(=O)N2CCc3c(c(-c4nnc(-c5ccccc5)o4)nn3C)C2)cc1Cl`, the RP-LC retention time was 1070 s.

For the molecule `CCOc1ccc(NC(=O)Nc2nccn(-c3ccc(Br)cc3)c2=O)cc1`, the RP-LC retention time was 1040 s.

`Cc1c(C(=O)N2CCCC2)cnn1-c1ccc(-c2nc(C3CC3)no2)cn1` registered an RP-LC retention time of 877 s.

Turning to `CCC(C)NS(=O)(=O)c1ccc(-c2n[nH]c(C)c2C)o1` (centres undefined), the RP-LC retention time was 772 s.

Molecule `O=C(c1ccc2ccccc2n1)N1C[C@@H](CO)[C@H](c2ccccn2)C1` returned an RP-LC retention time of 590 s.

As for `Cc1nnc(-c2cc(NC(=O)Cc3c[nH]c4ccccc34)c(C)s2)o1`, the RP-LC retention time stood at 794 s.

`CCc1nc2c(=O)n(CC(=O)N3CCN(c4ccc(Cl)cc4)CC3)nc(C)c2s1`: the RP-LC retention time worked out at 854 s.

In turn, `Cc1cc(-c2nnc(-c3ccc(F)cc3)o2)c(C)n1CC(=O)NCc1cc(F)cc(F)c1` gave an RP-LC retention time of 992 s.

On to `CCNC(=O)C1CCc2sc(C(=O)N3CCOCC3)cc2C1` (centres undefined), for which the RP-LC retention time was determined as 632 s.
